Structures can show the parent of a compound that is named as a salt. Marks after values point to notes of the source that are not given here.
Tests used:
[1] = test system: recreational stimulant users; experiment: Treatment-emergent adverse events, intravenous study (Example 2)
Protocol: A study was conducted in humans to assess the intravenous abuse potential of serdexmethylphenidate relative to unconjugated d-methylphenidate and placebo in recreational stimulant abusers. This was a Phase 1, randomized, double-blind study in which serdexmethylphenidate and d-methylphenidate were administered intravenously in recreational stimulant users with a history of non-oral abuse. In Part A of the study, subjects (Cohort 1) participated in a dose-escalation phase to determine the optimal dose of intravenous d-methylphenidate based on tolerability and abuse-related pharmacodynamic assessments. […] The doses of serdexmethylphenidate and d-methylphenidate are equivalent with respect to molar amount of d-methylphenidate. FDA-recommended abuse potential measures and blood samples were collected at different times after dosing. Safety assessments were performed throughout the study.

[2] = test system: recreational stimulant users; experiment: Intravenous abuse potential, VAS pharmacodynamic scores (Example 2); type: in vivo, human; conditions: SDX Cl 30 mg, d-MPH HCl 15 mg, bipolar VAS
Text: “Drug liking” score, used herein, is the score used to assess the degree that a human participant likes a drug effect at the time the question is being asked (that is, at the moment). It is scored using a 0 to 100 point bipolar visual analogue scale (VAS) anchored in the center with a neutral anchor of “neither like nor dislike” (score of 50), on the left with “strong disliking” (score of 0) and on the right with “strong liking” (score of 100).
“Euphoria” or “Feeling High” score, used herein, is the term to describe the score used to assess the degree that a human participant is high at the time the question is being asked (that is, at the moment). It is scored using a 0 to 100 point unipolar visual analogue scale (VAS) anchored on the left with “Not at All” (score of 0) and on the right with “Extremely” (score of 100).
“Take Drug Again” score, used herein, is the term to describe the score used to assess the degree that a human participant wants to take the drug again, if given the opportunity, based on his/her opinion now, i.e., at the time the question is being asked. It is scored using a 0 to 100 point unipolar visual analogue scale (VAS) anchored on the left with “Definitely Would Not” (score of 0) and on the right with “Definitely Would” (score of 100).
“Overall Drug Liking” score, used herein, is the term to describe the score used to assess the human subject's global perception of drug liking (i.e., the subjective effects over the whole course of the drug experience including any carryover effects). Subjects respond to the statement “Overall, my liking for this drug is.” The question is scored using a 0-100 point bipolar VAS anchored on the left with “Strong Disliking” (score of 0); “Neither Like nor Dislike” (score of 50) in the middle, and anchored on the right with “Strong Liking” (score of 100). This scale has the advantage of the human subject being relatively less affected or unaffected by acute study drug effects (if any) by the time of the assessment.
“Good Effects” score, used herein, is the term to describe the score used to assess the degree that a human participant is feeling good drug effects at the time the question is being asked (that is, at the moment). Subjects respond to the statement “At this moment, I can feel good drug effects.” It is scored using a 0 to 100 point unipolar visual analogue scale (VAS) anchored on the left with “Not at All” (score of 0) and on the right with “Extremely” (score of 100).
Safety assessments were performed throughout the study.

[3] = test system: healthy, nondependent, recreational stimulant users; experiment: Oral abuse potential, VAS pharmacodynamic scores (Example 4); conditions: phentermine HCl 60 mg
[4] = SDX Cl 120 mg, Focalin XR 80 mg
[5] = SDX Cl 120 mg, Focalin XR 80 mg, bipolar VAS
[6] = SDX Cl 120 mg, Focalin XR 80 mg, unipolar VAS

COC(=O)[C@H](c1ccccc1)[C@H]1CCCCN1 [d-methylphenidate, methyl (R)-2-phenyl-2-((R)-piperidin-2-yl)acetate, reference compound]
typical stimulant-related Adverse Events (euphoric mood, hypervigilance, increased heart rate), frequency vs serdexmethylphenidate [1]: more common | Drug Liking Emax (mean) [2]: 84.3

CC(C)(N)Cc1ccccc1 [phentermine hydrochloride, reference compound]
Mean difference Any Effects Emax vs SDX Cl 120 mg ([3]; Focalin XR 80 mg): 37.4 | Mean difference Any Effects Emax vs SDX Cl 240 mg ([3]; Focalin XR 80 mg): 28.0 | Mean difference Bad Effects Emax vs SDX Cl 120 mg ([3]; Focalin XR 80 mg): 11.9 | Mean difference Bad Effects Emax vs SDX Cl 240 mg ([3]; Focalin XR 80 mg): 4.6 | Mean difference Drug Liking Emax vs SDX Cl 120 mg ([3]; Focalin XR 80 mg): 15.5 | Mean difference Drug Liking Emax vs SDX Cl 240 mg ([3]; Focalin XR 80 mg): 14.0 | Mean difference Feeling Alert/Drowsy Emax vs SDX Cl 120 mg ([3]; Focalin XR 80 mg): 15.7 | Mean difference Feeling Alert/Drowsy Emax vs SDX Cl 240 mg ([3]; Focalin XR 80 mg): 12.2 | Mean difference Feeling High Emax vs SDX Cl 120 mg ([3]; Focalin XR 80 mg): 36.0 | Mean difference Feeling High Emax vs SDX Cl 240 mg ([3]; Focalin XR 80 mg): 27.7 | Mean difference Good Effects Emax vs SDX Cl 120 mg ([3]; Focalin XR 80 mg): 35.5 | Mean difference Good Effects Emax vs SDX Cl 240 mg ([3]; Focalin XR 80 mg): 30.2 | Mean difference Overall Drug Liking Emax vs SDX Cl 120 mg ([3]; Focalin XR 80 mg): 14.9 | Mean difference Overall Drug Liking Emax vs SDX Cl 240 mg ([3]; Focalin XR 80 mg): 15.3 | Mean difference Take Drug Again Emax vs SDX Cl 120 mg ([3]; Focalin XR 80 mg): 14.9 | Mean difference Take Drug Again Emax vs SDX Cl 240 mg ([3]; Focalin XR 80 mg): 15.4 | Mean difference Any Effects Emax vs placebo [3, 4]: 48.5 | Mean difference Drug Liking Emax vs placebo [3, 4]: 22.3 | Mean difference Feeling Alert/Drowsy Emax vs placebo [3, 4]: 23.5 | Mean difference Feeling High Emax vs placebo [3, 4]: 46.4 | Mean difference Good Effects Emax vs placebo [3, 4]: 47.6 | Mean difference Overall Drug Liking Emax vs placebo [3, 4]: 18.6 | Mean difference Take Drug Again Emax vs placebo [3, 4]: 17.1 | Drug Liking Emax (mean) [3, 5]: 80.2 | Drug Liking Emax (median) [3, 5]: 84.0 | Feeling Alert/Drowsy Emax (mean) [3, 5]: 81.4 | Feeling Alert/Drowsy Emax (median) [3, 5]: 84.0 | Overall Drug Liking Emax (mean) [3, 5]: 73.4 | Overall Drug Liking Emax (median) [3, 5]: 77.0 | Take Drug Again Emax (mean) [3, 5]: 72.3 | Take Drug Again Emax (median) [3, 5]: 75.0 | Any Effects Emax (mean) [3, 6]: 69.2 | Any Effects Emax (median) [3, 6]: 74.0 | Bad Effects Emax (mean) [3, 6]: 17.9 | Bad Effects Emax (median) [3, 6]: 7.0 | Feeling High Emax (mean) [3, 6]: 65.3 | Feeling High Emax (median) [3, 6]: 76.0 | Good Effects Emax (mean) [3, 6]: 66.2 | Good Effects Emax (median) [3, 6]: 75.0 | Median difference Bad Effects Emax vs placebo [3]: 8.0^c

COC(=O)[C@H](c1ccccc1)[C@H]1CCCCN1C(=O)OC[n+]1cccc(C(=O)N[C@@H](CO)C(=O)O)c1 [serdexmethylphenidate]
Drug Liking Emax (mean) [2]: 56.6

From US20190381017A1, “Compositions Comprising Serdexmethylphenidate Conjugates And Methods Of Use Thereof” (KemPharm, Inc., priority 2018, published 2019)
